Results as given in US20200022370A1, “MICROBIOCIDAL OXADIAZOLE DERIVATIVES” (SYNGENTA PARTICIPATIONS AG, priority 2016, published 2020).

Experiments:
[1] = system: Uromyces viciae-fabae; assay: Uromyces viciae-fabae / field bean / leaf disc preventative (faba-bean rust); assay type: in vivo; conditions: foliar, 288 h, 100 ppm in the applied formulation, field bean leaf discs, inoculated two hours after application, vs untreated, 12 days after application, read-out: disease control
Method: Leaf disks or leaf segments of various plant species are cut from plants grown in a greenhouse. The cut leaf disks or segments are placed in multiwell plates (24-well format) onto water agar. The leaf disks are sprayed with a test solution before (preventative) or after (curative) inoculation. Compounds to be tested are prepared as DMSO solutions (max. 10 mg/ml) which are diluted to the appropriate concentration with 0.025% Tween20 just before spraying. The inoculated leaf disks or segments are incubated under defined conditions (temperature, relative humidity, light, etc.) according to the respective test system. A single evaluation of disease level is carried out 3 to 14 days after inoculation, depending on the pathosystem. Percent disease control relative to the untreated check leaf disks or segments is then calculated.
Example 5: Fungicidal Activity Against Uromyces viciae-fabael Field Bean/Leaf Disc Preventative (Faba-Bean Rust)
Field bean leaf discs are placed on water agar in multiwell plates (96-well format) and 10 μl of the Formulated test compound diluted in acetone and a spreader pipetted onto the leaf disc. Two hours after application leaf discs are inoculated by spraying a spore suspension on the lower leaf surface. The leaf discs are incubated in a climate cabinet at 22° C. with 18 hour day and 70% relative humidity. The activity of a compound is assessed as percent disease control compared to untreated when an appropriate level of disease damage appears in untreated check leaf disks (12 days after application).
The following compounds at 100 ppm in the applied Formulation give at least 80% disease control in this test when compared to untreated control leaf discs under the same conditions, which show extensive disease development.

[2] = system: Glomerella lacenarium (Colletotrichum lacenarium); assay: Glomerella lacenarium (Colletotrichum lacenarium) liquid culture / cucumber / preventative (anthracnose); assay type: cell-based; conditions: 20 ppm, liquid culture in PDB, 24° C., inhibition of growth measured photometrically 3 to 4 days after application, vs untreated, read-out: disease control
Outline: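 Cryopreserved conidia in potato dextrose broth were added to test compound in a 96-well microtiter plate and incubated at 24 °C. Growth inhibition read photometrically 3–4 days after application, as percent activity versus untreated check.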

[3] = system: Phakopsora pachyrhizi; assay: Phakopsora pachyrhizi / soybean / leaf disc preventative (Asian soybean rust); assay type: in vivo; conditions: foliar, 200 ppm in the applied formulation, soybean leaf disks, inoculated one day after application, vs untreated, 12 to 14 days after application, read-out: disease control
Outline: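 Soybean leaf discs on water agar sprayed with formulated compound diluted in water, then inoculated one day later with spore suspension on the lower surface. Held 24-36 h dark at 20 °C, 75% rh, then 12 h light/day; percent disease control versus untreated scored 12-14 days after application.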

[4] = system: Puccinia recondita f. Sp. Tritici; assay: Puccinia recondita f. sp. tritici / wheat / leaf disc preventative (brown rust); assay type: in vivo; conditions: foliar, 200 ppm in the applied formulation, wheat leaf segments cv. Kanzler, inoculated 1 day after application, vs untreated, 7 to 9 days after application, read-out: disease control
Outline: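 Preventative leaf-segment test on wheat cv. Kanzler: formulated compound diluted in water was sprayed onto segments on agar, with spore inoculation 1 day later. Incubated at 19° C, 75% rh, 12 h light/12 h dark; percent disease control versus untreated scored 7 to 9 days after application.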

[5] = system: Puccinia recondita f. Sp. Tritici; assay: Puccinia recondita f. sp. tritici / wheat / leaf disc curative (brown rust); assay type: in vivo; conditions: foliar, 200 ppm in the applied formulation, wheat leaf segments cv. Kanzler, compound applied 1 day after inoculation, vs untreated, 6 to 8 days after application, read-out: disease control
Outline: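 Wheat leaf segments (cv. Kanzler) on agar inoculated with brown rust spores, held dark at 19 °C/75% RH, then sprayed 1 day post-inoculation with formulated compound diluted in water (curative). Incubated at 19 °C/75% RH, 12 h light/12 h dark; percent disease control versus untreated scored 6–8 days after application.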

| melting point [°C] | Compound | pest or weed control at 100 ppm [1] [%] | inhibition of growth at 20 ppm [2] [%] | pest or weed control at 200 ppm [3] [%] | pest or weed control at 200 ppm [4] [%] | pest or weed control at 200 ppm [5] [%] |
| --- | --- | --- | --- | --- | --- | --- |
| 162 to 163 | O=C(Nc1ccc(-c2noc(C(F)(F)F)n2)cc1)c1ccccc1C(F)(F)F [Compound 1.1, 2-(trifluoromethyl)-N-[4-[5-(trifluoromethyl)-1,2,4-oxadiazol-3-yl]phenyl]benzamide] | ≥ 80 | ≥ 80 | ≥ 80 |  |  |
| 200 to 204 | O=C(Nc1ccc(-c2noc(C(F)(F)F)n2)cc1)c1cn[nH]c1 [Compound 1.11, N-[4-[5-(trifluoromethyl)-1,2,4-oxadiazol-3-yl]phenyl]-1H-pyrazole-4-carboxamide] | ≥ 80 |  |  |  |  |
| 115 to 120 | O=C(Nc1ccc(-c2noc(C(F)(F)F)n2)cc1)C1CCCO1 (centres unmarked) [Compound 1.41, N-[4-[5-(trifluoromethyl)-1,2,4-oxadiazol-3-yl]phenyl] tetrahydrofuran-2-carboxamide] | ≥ 80 | ≥ 80 | ≥ 80 | ≥ 80 | ≥ 80 |
| 172.8 to 174.3 | O=C(Nc1ccc(-c2noc(C(F)(F)F)n2)cn1)c1ccccc1 [Compound 1.46, N-[5-[5-(trifluoromethyl)-1,2,4-oxadiazol-3-yl]-2-pyridyl]benzamide] | ≥ 80 |  | ≥ 80 |  |  |
| 110 to 112 | CC(C)(C)NC(=O)CN(C(=O)C1CC1)c1ccc(-c2noc(C(F)(F)F)n2)cc1 [Compound 1.60, N-[2-(tert-butylamino)-2-oxo-ethyl]-N-[4-[5-(trifluoromethyl)-1,2,4-oxadiazol-3-yl]phenyl]cyclopro-panecarboxamide] | ≥ 80 | ≥ 80 |  |  |  |
| 115 to 117 | COCC(=O)N(c1ccc(-c2noc(C(F)(F)F)n2)cc1)C(C)C(=O)NC(C)(C)C (centres unmarked) [Compound 1.62, N-tert-butyl-2-[N-(2-methoxyacetyl)-4-[5-(trifluoromethyl)-1,2,4-oxadiazol-3-yl]anilino] propanamide] | ≥ 80 |  |  |  |  |
| 151 to 154 | CONC(=O)Nc1ccc(-c2noc(C(F)(F)F)n2)cn1 [Compound 1.63, 1-methoxy-3-[5-[5-(trifluoromethyl)-1,2,4-oxadiazol-3-yl]-2-pyridyl]urea] |  | ≥ 80 | ≥ 80 |  |  |
| 113 to 116 | CCN(OC)C(=O)Nc1ccc(-c2noc(C(F)(F)F)n2)cc1 [Compound 1.67, 1-ethyl-1-methoxy-3-[4-[5-(trifluoromethyl)-1,2,4-oxadiazol-3-yl]phenyl]urea] |  | ≥ 80 | ≥ 80 | ≥ 80 | ≥ 80 |
| 89 to 92 | COCCN(OC)C(=O)Nc1ccc(-c2noc(C(F)(F)F)n2)cc1 [Compound 1.68, 1-methoxy-1-(2-methoxyethyl)-3-[4-[5-(trifluoromethyl)-1,2,4-oxadiazol-3-yl]phenyl]urea] |  | ≥ 80 | ≥ 80 | ≥ 80 | ≥ 80 |
| 134 to 137 | C=C(C)CONC(=O)Nc1ccc(-c2noc(C(F)(F)F)n2)cc1 [Compound 1.70, 1-(2-methylallyloxy)-3-[4-[5-(trifluoromethyl)-1,2,4-oxadiazol-3-yl]phenyl]urea] |  | ≥ 80 | ≥ 80 | ≥ 80 | ≥ 80 |
| 164 to 167 | CON1CCN(C(=O)Nc2ccc(-c3noc(C(F)(F)F)n3)cc2)CC1 [Compound 1.130, 4-methoxy-N-[4-[5-(trifluoromethyl)-1,2,4-oxadiazol-3-yl]phenyl]piperazine-1-carboxamide] |  | ≥ 80 | ≥ 80 | ≥ 80 | ≥ 80 |
| 65 to 68 | C=C(C)CON(C)C(=O)Nc1ccc(-c2noc(C(F)(F)F)n2)cc1 [Compound 1.131, 1-methyl-1-(2-methylallyloxy)-3-[4-[5-(trifluoromethyl)-1,2,4-oxadiazol-3-yl]phenyl]urea] |  | ≥ 80 | ≥ 80 | ≥ 80 | ≥ 80 |
| 73 to 76 | CONC(=O)N(C)c1ccc(-c2noc(C(F)(F)F)n2)cc1 [Compound 1.132, 3-methoxy-1-methyl-1-[4-[5-(trifluoromethyl)-1,2,4-oxadiazol-3-yl]phenyl]urea] |  | ≥ 80 |  | ≥ 80 | ≥ 80 |
| 93 to 94 | COCC(=O)Nc1ccc(-c2noc(C(F)(F)F)n2)cc1 [Compound 2.1, 2-methoxy-N-[4-[5-(trifluoromethyl)-1,2,4-oxadiazol-3-yl]phenyl]acetamide] | ≥ 80 | ≥ 80 | ≥ 80 | ≥ 80 | ≥ 80 |
| 146 to 147 | O=C(Nc1ccc(-c2noc(C(F)(F)F)n2)cc1)C(F)(F)F [Compound 2.2, 2,2,2-trifluoro-N-[4-[5-(trifluoromethyl)-1,2,4-oxadiazol-3-yl]phenyl]acetamide] | ≥ 80 | ≥ 80 |  |  |  |
| 124 to 127 | C=CCONC(=O)Nc1ccc(-c2noc(C(F)(F)F)n2)cc1 [Compound 2.3, 1-allyloxy-3-[4-[5-(trifluoromethyl)-1,2,4-oxadiazol-3-yl]phenyl]urea] | ≥ 80 | ≥ 80 | ≥ 80 | ≥ 80 | ≥ 80 |
| 78 to 86 | CCC(=O)N(C)c1ccc(-c2noc(C(F)(F)F)n2)cc1 [Compound 2.17, N-methyl-N-[4-[5-(trifluoromethyl)-1,2,4-oxadiazol-3-yl]phenyl] propanamide] |  | ≥ 80 | ≥ 80 | ≥ 80 | ≥ 80 |
| 117 to 120 | O=C(Nc1ccc(-c2noc(C(F)(F)F)n2)cc1)N1CCCCO1 [Compound 2.23, N-[4-[5-(trifluoromethyl)-1,2,4-oxadiazol-3-yl]phenyl]oxazinane-2-carboxamide] |  | ≥ 80 | ≥ 80 | ≥ 80 | ≥ 80 |
